Patent US20060235076A1, “Medicinal composition for treating infection with drug-resistant staphylococcus aureus” (priority 2003, published 2006)

System: MRSA
Test: Potentiating effect of galloyl quinic acid derivatives for the antibacterial activity of oxacillin (agar plate dilution method, MIC)
Assay type: cell-based, Staphylococcus aureus
Procedure: According to the agar plate dilution method defined by Japan Society of Chemotherapy, MIC (Minimum inhibitory concentration) was determined. CAMHA was prepared by adding 50 mg/l of Ca-ion, 25 mg/l of Mg-ion, and 2% of NaCl to Mueller-Hinton II Agar (MHA), and it was used as a medium for use in the measurement of sensitivity. The bacterial liquid was incubated at 37° C. overnight and diluted to 10^6 CFU/ml with saline.
It was confirmed that the known substances shown below were contained in “Tara” and their MICs were determined as described in example 2 with respect to the effects of the combination use with oxacillin

O=C(OC1CC(O)(C(=O)O)CC(OC(=O)c2cc(O)c(O)c(O)c2)C1OC(=O)c1cc(O)c(O)c(O)c1)c1cc(O)c(O)c(O)c1 (stereo not drawn) [compound 3]
Oxacillin MIC (ATCC 6538, with 12.5 μg/ml of compound): <0.5 µg/mL
Oxacillin MIC (ATCC 6538, with 25 μg/ml of compound): <0.5 µg/mL
Oxacillin MIC (ATCC 6538, with 50 μg/ml of compound): <0.5 µg/mL
Oxacillin MIC (MRSA 1, with 12.5 μg/ml of compound): 128 µg/mL
Oxacillin MIC (MRSA 1, with 25 μg/ml of compound): 32 µg/mL
Oxacillin MIC (MRSA 1, with 50 μg/ml of compound): 64 µg/mL
Oxacillin MIC (MRSA 2, with 12.5 μg/ml of compound): 2 µg/mL
Oxacillin MIC (MRSA 2, with 25 μg/ml of compound): <0.5 µg/mL
Oxacillin MIC (MRSA 2, with 50 μg/ml of compound): <0.5 µg/mL
Oxacillin MIC (MRSA 3, with 12.5 μg/ml of compound): 4 µg/mL
Oxacillin MIC (MRSA 3, with 25 μg/ml of compound): <0.5 µg/mL
Oxacillin MIC (MRSA 3, with 50 μg/ml of compound): 1 µg/mL
Oxacillin MIC (MRSA 4, with 12.5 μg/ml of compound): 32 µg/mL
Oxacillin MIC (MRSA 4, with 25 μg/ml of compound): 4 µg/mL
Oxacillin MIC (MRSA 4, with 50 μg/ml of compound): 2 µg/mL
Oxacillin MIC (MRSA 5, with 12.5 μg/ml of compound): 64 µg/mL
Oxacillin MIC (MRSA 5, with 25 μg/ml of compound): 8 µg/mL
Oxacillin MIC (MRSA 5, with 50 μg/ml of compound): 8 µg/mL
Oxacillin MIC (MRSA 6, with 12.5 μg/ml of compound): 4 µg/mL
Oxacillin MIC (MRSA 6, with 25 μg/ml of compound): 2 µg/mL
Oxacillin MIC (MRSA 6, with 50 μg/ml of compound): 4 µg/mL
Oxacillin MIC (MRSA 7, with 12.5 μg/ml of compound): 16 µg/mL
Oxacillin MIC (MRSA 7, with 25 μg/ml of compound): 4 µg/mL
Oxacillin MIC (MRSA 7, with 50 μg/ml of compound): 2 µg/mL
Oxacillin MIC (MRSA 8, with 12.5 μg/ml of compound): 8 µg/mL
Oxacillin MIC (MRSA 8, with 25 μg/ml of compound): 4 µg/mL
Oxacillin MIC (MRSA 8, with 50 μg/ml of compound): 8 µg/mL
Oxacillin MIC (MRSA 9, with 12.5 μg/ml of compound): 8 µg/mL
Oxacillin MIC (MRSA 9, with 25 μg/ml of compound): 2 µg/mL
Oxacillin MIC (MRSA 9, with 50 μg/ml of compound): 2 µg/mL
Oxacillin MIC (MRSA 10, with 12.5 μg/ml of compound): 4 µg/mL
Oxacillin MIC (MRSA 10, with 25 μg/ml of compound): 2 µg/mL
Oxacillin MIC (MRSA 10, with 50 μg/ml of compound): 4 µg/mL
Oxacillin MIC (MRSA 12, with 12.5 μg/ml of compound): 8 µg/mL
Oxacillin MIC (MRSA 12, with 25 μg/ml of compound): 4 µg/mL
Oxacillin MIC (MRSA 12, with 50 μg/ml of compound): 4 µg/mL
Oxacillin MIC (MRSA 16, with 12.5 μg/ml of compound): 32 µg/mL
Oxacillin MIC (MRSA 16, with 25 μg/ml of compound): 8 µg/mL
Oxacillin MIC (MRSA 16, with 50 μg/ml of compound): 8 µg/mL
Oxacillin MIC (MRSA 17, with 12.5 μg/ml of compound): 4 µg/mL
Oxacillin MIC (MRSA 17, with 25 μg/ml of compound): 8 µg/mL
Oxacillin MIC (MRSA 17, with 50 μg/ml of compound): 4 µg/mL
Oxacillin MIC (MRSA 18, with 12.5 μg/ml of compound): 32 µg/mL
Oxacillin MIC (MRSA 18, with 25 μg/ml of compound): 4 µg/mL
Oxacillin MIC (MRSA 18, with 50 μg/ml of compound): 4 µg/mL
Oxacillin MIC (MRSA 20, with 12.5 μg/ml of compound): <0.5 µg/mL
Oxacillin MIC (MRSA 20, with 25 μg/ml of compound): <0.5 µg/mL
Oxacillin MIC (MRSA 20, with 50 μg/ml of compound): <0.5 µg/mL
Oxacillin MIC (MRSA 21, with 12.5 μg/ml of compound): 1 µg/mL
Oxacillin MIC (MRSA 21, with 25 μg/ml of compound): <0.5 µg/mL
Oxacillin MIC (MRSA 21, with 50 μg/ml of compound): <0.5 µg/mL
Oxacillin MIC (MRSA 22, with 12.5 μg/ml of compound): 1 µg/mL
Oxacillin MIC (MRSA 22, with 25 μg/ml of compound): <0.5 µg/mL
Oxacillin MIC (MRSA 22, with 50 μg/ml of compound): 1 µg/mL
Oxacillin MIC (MRSA COL, with 12.5 μg/ml of compound): 8 µg/mL
Oxacillin MIC (MRSA COL, with 25 μg/ml of compound): 4 µg/mL
Oxacillin MIC (MRSA COL, with 50 μg/ml of compound): 4 µg/mL
Oxacillin MIC (MSSA 1003, with 12.5 μg/ml of compound): <0.5 µg/mL
Oxacillin MIC (MSSA 1003, with 25 μg/ml of compound): <0.5 µg/mL
Oxacillin MIC (MSSA 1003, with 50 μg/ml of compound): <0.5 µg/mL
Oxacillin MIC (MSSA 1010, with 12.5 μg/ml of compound): <0.5 µg/mL
Oxacillin MIC (MSSA 1010, with 25 μg/ml of compound): <0.5 µg/mL
Oxacillin MIC (MSSA 1010, with 50 μg/ml of compound): <0.5 µg/mL
Oxacillin MIC (MSSA 1032, with 12.5 μg/ml of compound): <0.5 µg/mL
Oxacillin MIC (MSSA 1032, with 25 μg/ml of compound): <0.5 µg/mL
Oxacillin MIC (MSSA 1032, with 50 μg/ml of compound): <0.5 µg/mL
Oxacillin MIC (RN4220, with 12.5 μg/ml of compound): <0.5 µg/mL
Oxacillin MIC (RN4220, with 25 μg/ml of compound): <0.5 µg/mL
Oxacillin MIC (RN4220, with 50 μg/ml of compound): <0.5 µg/mL
